Experimental data published in patent publication US20220306617A1, “SUBSTITUTED 1,3-PHENYL HETEROARYL DERIVATIVES AND THEIR USE IN THE TREATMENT OF DISEASE” (NOVARTIS AG, priority 2019, published 2022).
pEC50: −log10 of the molar value.

Molecular target: T1, abc isoform of human TMEM16A channel expressed in CHO cells (Homo sapiens, UniProt Q5XXA6, DEL476-501)
T1 construct: expressed in transfected cells; host or cells: CHO cells, doxycycline-inducible expression under Blasticidin/Zeocin selection
T1 sequence (Q5XXA6 with tags, fused parts or gaps isoform Q5XXA6-5 DEL539-564): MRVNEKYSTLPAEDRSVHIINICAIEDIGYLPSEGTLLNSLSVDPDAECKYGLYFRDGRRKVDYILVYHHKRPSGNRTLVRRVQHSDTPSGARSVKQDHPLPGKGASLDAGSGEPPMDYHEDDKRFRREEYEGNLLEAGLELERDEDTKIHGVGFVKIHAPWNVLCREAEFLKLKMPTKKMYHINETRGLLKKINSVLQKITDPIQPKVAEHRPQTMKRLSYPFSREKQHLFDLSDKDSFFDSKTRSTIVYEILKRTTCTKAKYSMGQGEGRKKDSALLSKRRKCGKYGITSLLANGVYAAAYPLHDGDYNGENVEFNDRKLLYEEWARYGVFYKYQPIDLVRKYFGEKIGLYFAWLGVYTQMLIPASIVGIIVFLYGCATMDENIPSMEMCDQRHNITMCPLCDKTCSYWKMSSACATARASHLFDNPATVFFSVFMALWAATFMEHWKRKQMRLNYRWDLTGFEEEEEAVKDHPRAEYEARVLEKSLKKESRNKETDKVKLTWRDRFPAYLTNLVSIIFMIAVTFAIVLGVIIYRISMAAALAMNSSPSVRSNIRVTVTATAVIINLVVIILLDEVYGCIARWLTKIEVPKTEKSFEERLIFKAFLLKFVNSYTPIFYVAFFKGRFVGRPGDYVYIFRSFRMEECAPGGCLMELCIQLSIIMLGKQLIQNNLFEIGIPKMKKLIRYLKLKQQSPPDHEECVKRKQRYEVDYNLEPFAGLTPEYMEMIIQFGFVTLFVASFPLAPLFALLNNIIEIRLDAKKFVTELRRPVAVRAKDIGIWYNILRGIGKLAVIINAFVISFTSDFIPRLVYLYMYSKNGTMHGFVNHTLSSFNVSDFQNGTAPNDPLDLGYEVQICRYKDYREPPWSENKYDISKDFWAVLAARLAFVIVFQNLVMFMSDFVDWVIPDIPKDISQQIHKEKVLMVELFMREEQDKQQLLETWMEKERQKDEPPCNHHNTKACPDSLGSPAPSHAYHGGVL
Experiment: Automated patch clamping (QPatch) assay to measure TMEM16A activity in whole-cell
Assay type: cell-based
Conditions: for pEC50: CHO cells expressing human TMEM16A (abc), whole-cell automated patch clamp, Hill fit, read-out: TMEM16A QPATCH assay EC50 V3 EC50; for Emax: CHO, maximum current at highest dose relative to reference potentiator at maximal concentration (upper limit) and vehicle (lower limit), read-out: TMEM16A QPATCH assay EC50 V3 Assay Window (% TMEM16A max activation)
Outline: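 CHO cells with doxycycline-induced (1 μg/mL, 18-24 h) human TMEM16A abc isoform; QPatch whole-cell recording, hold −70 mV, step +70 mV 1500 ms, then −90 to +70 mV ramp. Compounds in 0.3% DMSO; EC50 by Hill fit; % max activation relative to vehicle baseline and reference potentiator maximum.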

| Compound | pEC50 | Emax |
| --- | --- | --- |
| CCC(CC)NC(=O)c1cnc(-c2cccc(-c3cc(C(=O)NC(C)(C)C4CC4)n[nH]3)c2)o1 [Example 3.7, 2-(3-(3-((2-Cyclopropylpropan-2-Yl)Carbamoyl)-1H-Pyrazol-5-Yl)Phenyl)-N-(Pentan-3-Yl)Oxazole-5-Carboxamide] | 7.70 | 118% |
| CCC(CC)NC(=O)c1cnc(-c2cccc(-c3cc(C(=O)NC(C)(C4CC4)C(F)(F)F)n[nH]3)c2)o1 (stereo not drawn) [Example 3.8, 2-(3-(3-((2-Cyclopropyl-1,1,1-Trifluoropropan-2-Yl)Carbamoyl)-1H-Pyrazol-5-Yl)Phenyl)-N-(Pentan-3-Yl)Oxazole-5-Carboxamide] | 7.30 | 99% |
| CCC(CC)NC(=O)c1cnc(-c2cccc(-c3cc(C(=O)NCCOC(C)C)n[nH]3)c2)o1 [Example 3.9, 2-(3-(3-((2-Isopropoxyethyl)Carbamoyl)-1H-Pyrazol-5-Yl)Phenyl)-N-(Pentan-3-Yl)Oxazole-5-Carboxamide] | 6.30 | 96% |
| CCC(CC)NC(=O)c1cnc(-c2cccc(-c3cc(C(=O)NC(C)C4CCC4)n[nH]3)c2)o1 (stereo not drawn) [Example 3.10, 2-(3-(3-((1-Cyclobutylethyl)Carbamoyl)-1H-Pyrazol-5-Yl)Phenyl)-N-(Pentan-3-Yl)Oxazole-5-Carboxamide] | 7.05 | 95% |
| CCC(CC)NC(=O)c1cnc(-c2cccc(-c3cc(C(=O)N[C@@H](C)COC)n[nH]3)c2)o1 [Example 3.11, (S)-2-(3-(3-((1-Methoxypropan-2-Yl)Carbamoyl)-1H-Pyrazol-5-Yl)Phenyl)-N-(Pentan-3-Yl)Oxazole-5-Carboxamide] | 6.23 | 91% |
| CCC(CC)NC(=O)c1cnc(-c2cccc(-c3cc(C(=O)NCC(C)(C)OC)n[nH]3)c2)o1 [Example 3.12, 2-(3-(3-((2-Methoxy-2-Methylpropyl)Carbamoyl)-1H-Pyrazol-5-Yl)Phenyl)-N-(Pentan-3-Yl)Oxazole-5-Carboxamide] | 6.57 | 76% |
| CCC(CC)NC(=O)c1cnc(-c2cccc(-c3cc(C(=O)NCC4(C)CC4)n[nH]3)c2)o1 [Example 3.13, 2-(3-(3-(((1-Methylcyclopropyl)Methyl)Carbamoyl)-1H-Pyrazol-5-Yl)Phenyl)-N-(Pentan-3-Yl)Oxazole-5-Carboxamide] | 7.15 | 70% |
| CCC(CC)NC(=O)c1cnc(-c2cccc(-c3cc(C(=O)Nc4cccc(OC(F)(F)F)c4)n[nH]3)c2)o1 [Example 3.14, N-(Pentan-3-Yl)-2-(3-(3-((3-(Trifluoromethoxy)Phenyl)Carbamoyl)-1 H-Pyrazol-5-Yl)Phenyl)Oxazole-5-Carboxamide] | 6.31 | 43% |
| CCC(CC)NC(=O)c1cnc(-c2cccc(-c3cc(C(=O)N4CCCC(C)(C)C4)n[nH]3)c2)o1 [Example 3.15, 2-(3-(3-(3,3-Dimethylpiperidine-1-Carbonyl)-1H-Pyrazol-5-Yl)Phenyl)-N-(Pentan-3-Yl)Oxazole-5-Carboxamide] | 6.70 | 72% |
| CCC(CC)NC(=O)c1cnc(-c2cccc(-c3cc(C(=O)NCc4ccccc4)n[nH]3)c2)o1 [Example 3.16, 2-(3-(3-(Benzylcarbamoyl)-1H-Pyrazol-5-Yl)Phenyl)-N-(Pentan-3-Yl)Oxazole-5-Carboxamide] | 6.85 | 67% |
| CCOC(=O)[C@H](CC1CCCCC1)NC(=O)c1cc(-c2cccc(-c3ncc(C(=O)NC(CC)CC)o3)c2)[nH]n1 [Example 3.17, (S)-Ethyl 3-Cyclohexyl-2-(5-(3-(5-(Pentan-3-Ylcarbamoyl)Oxazol-2-Yl)Phenyl)-1 H-Pyrazole-3-Carboxamido)Propanoate] | 6.77 | 66% |
| CCC(CC)NC(=O)c1cnc(-c2cccc(-c3cc(C(=O)NCC4CCCCC4)n[nH]3)c2)o1 [Example 3.18, 2-(3-(3-((Cyclohexylmethyl)Carbamoyl)-1H-Pyrazol-5-Yl)Phenyl)-N-(Pentan-3-Yl)Oxazole-5-Carboxamide] | 7.52 | 66% |
| CCC(CC)NC(=O)c1cnc(-c2cccc(-c3cc(C(=O)NCc4ccc(C5(C(F)(F)F)N=N5)cc4)n[nH]3)c2)o1 [Example 3.19, N-(Pentan-3-Yl)-2-(3-(3-((4-(3-(Trifluoromethyl)-3H-Diazirin-3-Yl)Benzyl)Carbamoyl)-1 H-Pyrazol-5-Yl)Phenyl)Oxazole-5-Carboxamide] | 6.57 | 69% |
| CCOC(=O)C1(C)CCN(C(=O)c2cc(-c3cccc(-c4ncc(C(=O)NC(CC)CC)o4)c3)[nH]n2)C1 (stereo not drawn) [Example 3.20, Ethyl 3-Methyl-1-(5-(3-(5-(Pentan-3-Ylcarbamoyl)Oxazol-2-Yl)Phenyl)-1H-Pyrazole-3-Carbonyl)Pyrrolidine-3-Carboxylate] | 6.35 | 82% |
| CCC(CC)NC(=O)c1cnc(-c2cccc(-c3cc(C(=O)Nc4cccc(OC(C)C)c4)n[nH]3)c2)o1 [Example 3.21, 2-(3-(3-((3-Isopropoxyphenyl)Carbamoyl)-1H-Pyrazol-5-Yl)Phenyl)-N-(Pentan-3-Yl)Oxazole-5-Carboxamide] | 6.72 | 74% |
| CCC(CC)NC(=O)c1cnc(-c2cccc(-c3cc(C(=O)NCc4ccc5c(c4)OCO5)n[nH]3)c2)o1 [Example 3.22, 2-(3-(3-((Benzo[d][1,3]Dioxol-5-Ylmethyl)Carbamoyl)-1H-Pyrazol-5-Yl)Phenyl)-N-(Pentan-3-Yl)Oxazole-5-Carboxamide] | 6.85 | 60% |
| CCC(CC)NC(=O)c1cnc(-c2cccc(-c3cc(C(=O)NCCSC(C)(C)C)n[nH]3)c2)o1 [Example 3.23, 2-(3-(3-((2-(Tert-Butylthio)Ethyl)Carbamoyl)-1H-Pyrazol-5-Yl)Phenyl)-N-(Pentan-3-Yl)Oxazole-5-Carboxamide] | 6.89 | 79% |
| CCC(CC)NC(=O)c1cnc(-c2cccc(-c3cc(C(=O)N[C@@H](C)CC)n[nH]3)c2)o1 [Example 3.24, (S)-2-(3-(3-(Sec-Butylcarbamoyl)-1H-Pyrazol-5-Yl)Phenyl)-N-(Pentan-3-Yl)Oxazole-5-Carboxamide] | 7.40 | 76% |
| CCC(CC)NC(=O)c1cnc(-c2cccc(-c3cc(C(=O)N[C@@H](C)C4CC4)n[nH]3)c2)o1 [Example 3.25, (S)-2-(3-(3-((1-Cyclopropylethyl)Carbamoyl)-1H-Pyrazol-5-Yl)Phenyl)-N-(Pentan-3-Yl)Oxazole-5-Carboxamide] | 7.40 | 90% |
| CCC(CC)NC(=O)c1cnc(-c2cccc(-c3cc(C(=O)N[C@@H](CC(C)C)C(=O)OC)n[nH]3)c2)o1 [Example 3.27, (S)-Methyl 4-Methyl-2-(5-(3-(5-(Pentan-3-Ylcarbamoyl)Oxazol-2-Yl)Phenyl)-1H-Pyrazole-3-Carboxamido)Pentanoate] | 8.00 | 87% |
| CCC(CC)NC(=O)c1cnc(-c2cccc(-c3cc(C(=O)NC(Cc4ccccc4)C(=O)OC)n[nH]3)c2)o1 (stereo not drawn) [Example 3.28, Methyl 2-(5-(3-(5-(Pentan-3-Ylcarbamoyl)Oxazol-2-Yl)Phenyl)-1H-Pyrazole-3-Carboxamido)-3-Phenylpropanoate] | 6.46 | 84% |
| CCC(CC)NC(=O)c1cnc(-c2cccc(-c3cc(C(=O)NC(CC)C(C)C)n[nH]3)c2)o1 (stereo not drawn) [Example 3.29, 2-(3-(3-((2-Methylpentan-3-Yl)Carbamoyl)-1H-Pyrazol-5-Yl)Phenyl)-N-(Pentan-3-Yl)Oxazole-5-Carboxamide] | 7.40 | 94% |
| CCC(CC)NC(=O)c1cnc(-c2cccc(-c3cc(C(=O)N4CCC(C(=O)OC)C4)n[nH]3)c2)o1 (stereo not drawn) [Example 3.30, Methyl 1-(5-(3-(5-(Pentan-3-Ylcarbamoyl)Oxazol-2-Yl)Phenyl)-1H-Pyrazole-3-Carbonyl)Pyrrolidine-3-Carboxylate] | 6.12 | 90% |
| CCC(CC)NC(=O)c1cnc(-c2cccc(-c3cc(C(=O)N4CCCC4C(C)C)n[nH]3)c2)o1 (stereo not drawn) [Example 3.31, 2-(3-(3-(2-Isopropylpyrrolidine-1-Carbonyl)-1H-Pyrazol-5-Yl)Phenyl)-N-(Pentan-3-Yl)Oxazole-5-Carboxamide] | 6.74 | 87% |
